This note sets out measurements from PubChem BioAssay (NCI).

Among the test systems are ACHN renal; KM12 colon; LOX IMVI melanoma; MALME-3M melanoma; MCF7 breast; MDA-MB-435; OVCAR-8 ovarian; RPMI-8226 leukemia; SNB-19 CNS; TK-10 renal.
Common to all, as to assay: inhibition of tumour cell growth, NCI panel, 48 h

Each structure is given as a SMILES string.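 Where inhibition never reached the appropriate level, the endpoint shown equals the highest concentration tested. Otherwise, values were interpolated linearly from a five-concentration, 48-hour dose response in 96-well plates. TGI: total growth inhibition.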 Where only a bound is given, the exact number is not on record here.

With `CCC1(CC)C(=O)N(C(=O)c2cc(OC)c(OC)c(OC)c2)N(C(=O)c2cc(OC)c(OC)c(OC)c2)C1=O`, the TGI in the test on ACHN renal, in the test on KM12 colon, with LOX IMVI melanoma, in the test on MALME-3M melanoma, in the test with MCF7 breast and in the test on MDA-MB-435 was greater than 50 µM in each case. Further, the TGI in the test with OVCAR-8 ovarian, with RPMI-8226 leukemia, in the test on SNB-19 CNS and with TK-10 renal was greater than 50 µM in each case.
As to `Nc1c(N2CCOCC2)c(=O)nc2[nH]/c(=C\c3ccccc3O)c(=O)n12`, the TGI in the test on ACHN renal, in the test with KM12 colon, in the test on LOX IMVI melanoma, with MALME-3M melanoma, in the test with MCF7 breast and with MDA-MB-435 was greater than 100 µM throughout. Further, the TGI is greater than 100 µM in the test with OVCAR-8 ovarian, 77.3 µM with RPMI-8226 leukemia, greater than 100 µM in the test on SNB-19 CNS and greater than 100 µM in the test with TK-10 renal.
With `CN1c2ccccc2C2=C(c3ccccc3)CC[C@@H](C(=O)N3C4CC5CC[C@@]4(CS3(=O)=O)C5(C)C)[C@@H]21` (stereo not given in full), the TGI in the test on ACHN renal, in the test on KM12 colon, in the test with LOX IMVI melanoma, in the test on MALME-3M melanoma, in the test with MCF7 breast and in the test on MDA-MB-435 was greater than 100 µM in each case. Also, the TGI in the test on OVCAR-8 ovarian, with RPMI-8226 leukemia, in the test on SNB-19 CNS and in the test with TK-10 renal was greater than 100 µM throughout.
On to `NCCCCNCCCN1CCOC1=O`, for which the TGI in the test with ACHN renal, in the test with KM12 colon, with LOX IMVI melanoma, with MALME-3M melanoma, in the test with MCF7 breast and in the test on MDA-MB-435 was greater than 100 µM in each case. Moreover, the TGI in the test with OVCAR-8 ovarian, with RPMI-8226 leukemia, in the test on SNB-19 CNS and in the test on TK-10 renal was greater than 100 µM in each case.
Consider `Cc1nc2c(=O)n(-c3ccccc3)c(=O)n(-c3ccccc3)c2o1`, for which the TGI in the test with ACHN renal, with KM12 colon, in the test on LOX IMVI melanoma, in the test on MALME-3M melanoma, in the test on MCF7 breast and in the test on MDA-MB-435 was greater than 100 µM each time. Also, the TGI in the test on OVCAR-8 ovarian, in the test with RPMI-8226 leukemia, in the test with SNB-19 CNS and in the test on TK-10 renal was greater than 100 µM each time.
For the compound `CC1=NN2C(=N)/C(=C/c3ccc(F)cc3)C(=O)N=C2S1`, the TGI in the test with ACHN renal, with KM12 colon, in the test with LOX IMVI melanoma, in the test on MALME-3M melanoma, in the test with MCF7 breast and in the test with MDA-MB-435 was greater than 100 µM each time. Further, the TGI in the test on OVCAR-8 ovarian, with RPMI-8226 leukemia, with SNB-19 CNS and with TK-10 renal was greater than 100 µM each time.
Regarding `COc1ccc(-c2cc3cc(Cl)cc(Cl)c3oc2=O)cc1OC`, the TGI in the test on ACHN renal, with KM12 colon, with LOX IMVI melanoma, in the test with MALME-3M melanoma, in the test with MCF7 breast and with MDA-MB-435 was greater than 100 µM each time. Besides, the TGI in the test with OVCAR-8 ovarian, in the test on RPMI-8226 leukemia, in the test with SNB-19 CNS and in the test on TK-10 renal was greater than 100 µM throughout.
In the case of `CS(=O)(=O)Nc1ccc2ccccc2c1`, the TGI with ACHN renal, in the test with KM12 colon, with LOX IMVI melanoma, with MALME-3M melanoma, with MCF7 breast and with MDA-MB-435 was greater than 100 µM throughout. Moreover, the TGI in the test with OVCAR-8 ovarian, in the test on RPMI-8226 leukemia, with SNB-19 CNS and with TK-10 renal was greater than 100 µM throughout.
On to `CSc1nc(=O)c2nc(-c3cccs3)c(-c3cccs3)nc2n1C`, for which the TGI with ACHN renal, in the test on KM12 colon, in the test on LOX IMVI melanoma, with MALME-3M melanoma, in the test on MCF7 breast and with MDA-MB-435 was greater than 100 µM throughout. For the same compound, the TGI with OVCAR-8 ovarian, in the test on RPMI-8226 leukemia, in the test with SNB-19 CNS and in the test with TK-10 renal was greater than 100 µM each time.
With `CCC1([N+](=O)[O-])CN(N=O)C1`, the TGI in the test with ACHN renal, with KM12 colon, in the test on LOX IMVI melanoma, in the test with MALME-3M melanoma, in the test on MCF7 breast and in the test on MDA-MB-435 was greater than 100 µM throughout. Also, the TGI with OVCAR-8 ovarian, in the test on RPMI-8226 leukemia, with SNB-19 CNS and in the test on TK-10 renal was greater than 100 µM each time.
Take `COc1cc2c(c(OC)c1)[C@H](C)N(Cc1ccccc1)C(C)C2` (stereo not given in full): the TGI with ACHN renal was greater than 100 µM; in the test on KM12 colon, greater than 100 µM; with LOX IMVI melanoma, greater than 100 µM; in the test on MALME-3M melanoma it was greater than 100 µM; in the test on MCF7 breast, greater than 100 µM; with MDA-MB-435, 37.8 µM. Moreover, the TGI in the test on OVCAR-8 ovarian, in the test on RPMI-8226 leukemia, with SNB-19 CNS and with TK-10 renal was greater than 100 µM each time.
